Results from patent US6426355B1, “Heterocyclic carboxamide-containing thiourea inhibitors of herpes viruses containing phenylenediamine group” (American Home Products, priority 1998, dated 2002).
Values after ≈ are worked out from the molar mass of the structure shown.

Legend:
HSV-1 = experiment: HSV Antiviral (ELISA) assay; format: cell-based; details: for IC50: Human alphaherpesvirus 1, HSV-1 in Vero cells, read-out: IC50 (ug/ml) HSV; for IC50 (ug/ml) HSV: HSV-1 in Vero cells
Outline: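 Replication measured as glycoprotein D signal in fixed cells: anti-gD antibody plus β-galactosidase-linked secondary, fluorogenic substrate read at 365/450 nm. Vero cells (2% FBS DMEM) received compound 30 min pre-infection, HSV-1 MOI 0.006, ~24 h incubation; IC50 relative to no-compound fluorescence.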

VZV strain Ellen = experiment: VZV Antiviral (ELISA) assay; format: cell-based; details: for IC50: Human alphaherpesvirus 3, VZV strain Ellen in HFF cells, read-out: IC50 (ug/ml) VZV; for inhibition at 10 µg/mL: Human alphaherpesvirus 3, read-out: % inhibition 10 ug/ml VZV, at 10 ug/ml, VZV strain Ellen in HFF cells; for IC50 (ug/ml) VZV / % inhibition 10 ug/ml VZV: VZV strain Ellen in HFF cells; for % inhibition 10 ug/ml VZV: at 10 ug/ml
Outline: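 HFF cells infected overnight with VZV Ellen at MOI <0.1, mixed with uninfected cells, were seeded with compound and grown 3 days at 37° C in DMEM/2% FBS. Viral glycoprotein II was detected by ELISA with β-galactosidase-linked secondary; IC50 from fluorescence versus no-compound wells.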

[1] = system: HCMV recombinant mutant virus (RV145); experiment: HCMV microtiter plate assay (beta-glucuronidase reporter); format: cell-based, Human Cytomegalovirus; details: for IC50: Human betaherpesvirus 5, Fibroblast, read-out: IC50 (ug/ml) HCMV; for IC50 (ug/ml) HCMV: HCMV in human foreskin fibroblasts
Outline: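 Replication was read out as virus-encoded β-glucuronidase activity, measured with a chromogenic or fluorogenic glucuronide substrate in cell lysates at 96 h post-infection. Infection of human foreskin fibroblasts with RV145 took place with compound present. IC50 was derived from a range of inhibitor amounts.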

| SMILES | IC50 (HSV-1) | IC50 (VZV strain Ellen) | inhibition at 10 µg/mL (VZV strain Ellen) | IC50 [1] | IC50 (ug/ml) HSV (HSV-1) | IC50 (ug/ml) VZV (VZV strain Ellen) | % inhibition 10 ug/ml VZV (VZV strain Ellen) | IC50 (ug/ml) HCMV [1] |
| --- | --- | --- | --- | --- | --- | --- | --- | --- |
| NC(=O)c1cccc(NC(=S)Nc2ccc(NC(=O)c3csnn3)cc2)c1 [Example 1005, [1,2,3]Thiadiazole-4-carboxylic acid {4-[3-(3-carbamoyl-phenyl)-thioureido]-phenyl}-amide] | > 10 µg/mL | > 10 µg/mL | 16% | 2 µg/mL (≈ 5.02 µM) |  |  |  |  |
| O=C(Nc1ccc(NC(=S)Nc2ccc3[nH]cnc3c2)cc1)c1ccco1 [Example 494] |  |  |  |  | >10 µg/mL | >10 µg/mL | 6% | 3.5 µg/mL (≈ 9.27 µM) |
| CCCCc1nc(C(=O)Nc2ccc(NC(=S)Nc3ccc(Cl)c(C(F)(F)F)c3)cc2)cs1 [Example 1135, 2-Butyl-thiazole-4-carboxylic acid {4-[3-(4-chloro-3-trifluoromethyl-phenyl)-thioureido]-phenyl}-amide] | 3.6 µg/mL (≈ 7.02 µM) | 7.5 µg/mL (≈ 14.6 µM) |  | 1.3 µg/mL (≈ 2.53 µM) |  |  |  |  |
| O=C(Nc1ccc(NC(=S)Nc2ccccc2Cl)cc1)c1csnn1 [Example 1006, [1,2,3]Thiadiazole-4-carboxylic acid {4-[3-(2-chloro-phenyl)-thioureido]-phenyl}-amide] | > 10 µg/mL | > 10 µg/mL | 13% | 0.2 µg/mL (≈ 0.513 µM) |  |  |  |  |
| COc1cc(C)c(Cl)cc1NC(=S)Nc1ccc(NC(=O)c2ccccn2)cc1 [Example 352] |  |  |  |  | 3 µg/mL (≈ 7.03 µM) | >10 µg/mL | 51% | 0.6 µg/mL (≈ 1.41 µM) |
| O=C(Nc1ccc(NC(=S)Nc2ccc3scnc3c2)cc1)c1ccco1 [Example 482] |  |  |  |  | 9 µg/mL (≈ 22.8 µM) | >10 µg/mL | 33% | 0.3 µg/mL (≈ 0.76 µM) |
| COc1cc(OC)c(NC(=S)Nc2ccc(NC(=O)c3cc4ccccc4o3)cc2)cc1Cl [Example 154] |  |  |  |  | 4 µg/mL (≈ 8.3 µM) | >10 µg/mL | 23% | 10 µg/mL (≈ 20.7 µM) |
| O=C(Nc1ccc(NC(=S)Nc2ccc(F)c(C(F)(F)F)c2)cc1)c1csnn1 [Example 600] |  |  |  |  | >10 µg/mL | >10 µg/mL |  | 0.012 µg/mL (≈ 0.0272 µM) |
| COc1cc(OC)c(NC(=S)Nc2ccc(NC(=O)c3cc(Br)co3)cc2)cc1Cl [Example 169] |  |  |  |  | 3 µg/mL (≈ 5.87 µM) | >10 µg/mL | 26% | 4 µg/mL (≈ 7.83 µM) |
| O=C(Nc1ccc(NC(=S)Nc2ccc(NC(=O)c3ccccc3F)cc2)cc1Cl)OCCN1CCCCC1 [Example 438] |  |  |  |  | 5 µg/mL (≈ 8.77 µM) | 1.5 µg/mL (≈ 2.63 µM) | 73% | 3 µg/mL (≈ 5.26 µM) |
| CN(c1ccc(NC(=S)Nc2ccc(NC(=O)c3ccco3)cc2)cc1Cl)C1CCN(Cc2ccccc2)C1 (stereo not shown) [Example 331] |  |  |  |  | 1.8 µg/mL (≈ 3.21 µM) | 5 µg/mL (≈ 8.93 µM) | 98% | 2 µg/mL (≈ 3.57 µM) |
| O=C(Nc1ccc(NC(=S)Nc2cc(C(F)(F)F)cc(C(F)(F)F)c2)cc1)c1ccco1 [Example 516] |  |  |  |  | >10 µg/mL | >10 µg/mL | 7% | 0.04 µg/mL (≈ 0.0845 µM) |
| O=C(Nc1ccc(NC(=S)Nc2ccc(OC(F)(F)F)c(Br)c2)cc1)c1ccco1 [Example 919, Furan-2-carboxylic acid {4-[3-(3-bromo-4-trifluoromethoxy-phenyl)-thioureido]-phenyl}-amide] | > 10 µg/mL | > 10 µg/mL |  | 0.05 µg/mL (≈ 0.0999 µM) |  |  |  |  |
| CN(C)c1ccc(Cl)cc1NC(=S)Nc1ccc(NC(=O)c2csnn2)cc1 [Example 500] |  |  |  |  | >10 µg/mL | >10 µg/mL | 48% | 0.021 µg/mL (≈ 0.0485 µM) |
| O=C(Nc1ccc(NC(=S)NCCc2ccc(F)cc2)cc1)c1csnn1 [Example 555] |  |  |  |  | >10 µg/mL | 4 µg/mL (≈ 9.96 µM) |  | 0.008 µg/mL (≈ 0.0199 µM) |
| CC(=O)Nc1cccc(NC(=S)Nc2ccc(NC(=O)c3ccco3)cc2)c1 [Example 462] |  |  |  |  | >10 µg/mL | >10 µg/mL | 6% | 1 µg/mL (≈ 2.54 µM) |
| CC(=O)Nc1ccc(NC(=S)Nc2cc(Cl)c(Cl)c(Cl)c2)cc1 [Example 986, N-{4-[3-(3,4,5-Trichloro-phenyl)-thioureido]-phenyl}-acetamide] | > 10 µg/mL |  | 5% | 0.031 µg/mL (≈ 0.0798 µM) |  |  |  |  |
| CC(=O)Nc1ccc(NC(=S)Nc2ccc(NC(=O)c3ccco3)cc2)cc1Cl [Example 409] |  |  |  |  | >10 µg/mL | >10 µg/mL | 5% | 2 µg/mL (≈ 4.66 µM) |
| CC(NC(=S)Nc1ccc(NC(=O)c2ccsc2)cc1)c1ccc(F)cc1 (stereo not shown) [Example 1129, Thiophene-3-carboxylic acid (4-{3-[1-(4-fluoro-phenyl)-ethyl]-thioureido}-phenyl)-amide] | 1.9 µg/mL (≈ 4.76 µM) | > 10 µg/mL |  | 1 µg/mL (≈ 2.5 µM) |  |  |  |  |
| O=C(Nc1ccc(NC(=S)NCc2cc(C(F)(F)F)cc(C(F)(F)F)c2)cc1)c1csnn1 [Example 542] |  |  |  |  | >10 µg/mL | >10 µg/mL |  | 0.0011 µg/mL (≈ 0.00218 µM) |
| N#Cc1cccc(NC(=S)Nc2ccc(NC(=O)c3ccco3)cc2)c1 [Example 441] |  |  |  |  | >10 µg/mL | >10 µg/mL |  | 0.17 µg/mL (≈ 0.469 µM) |
